Here are results for two molecules from PubChem BioAssay AID1963446 (Molecular Pharmacology Branch, DTP, NCI, 2024).

Molecules are shown by their SMILES. Values joined by “and” are separate entries in the source; they are usually repeats but may differ in a detail not shown here. Equal values may be shown once.

The test system of the test is 993429-296-R-J1-PDC complex spheroid growth, percent test/control. Kind of test: Anticancer human tumor 993429-296-R-J1-PDC patient-derived uterine sarcoma cell line growth inhibition [Asc]. The conditions noted are these: for viability, T/C: stronger effect = lower value. A digest of the protocol:
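Spheroid model: tumor line + HUVEC + hMSC. Single agents and combinations; top conc. at/near clinical Cmax (10 microM if undetermined), half-log dilutions. DMSO stocks at 800-fold test concentration.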
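Note: spheroids exposed to compounds for seven days.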

The IC50 is the concentration that inhibits the measured activity by half. By viability, T/C is commonly meant the ratio of treated to control. `Cn1ncnc1[C@H]1c2n[nH]c(=O)c3cc(F)cc(c23)N[C@@H]1c1ccc(F)cc1` + Cc1c(S(C)(=O)=O)c(-c2cc(F)cc(N3CCN(c4ccc(NS(=O)(=O)c5ccc(NC(CCN6CCC(C(=O)OCCCP(=O)(O)O)CC6)CSc6ccccc6)c(S(=O)(=O)C(F)(F)F)c5)cc4)CC3)c2)c(-c2ccc(Cl)cc2)n1C(C)C: the IC50 runs as follows: (curve of first compound, second compound 0.1 µM) 9.83 nM; (curve of first compound, second compound 0.316 µM) 4.71 nM; (curve of first compound, second compound 1 µM) 3.8 nM; (curve of first compound, second compound 3.16 µM) 1.01 nM; (curve of first compound, second compound 10 µM) 10.1 nM. Also, the viability, T/C was 66.9% (second compound 0.1 µM, first compound 0.000316 µM); 70.1% (second compound 0.1 µM, first compound 0.001 µM); 64.5% (second compound 0.1 µM, first compound 0.00316 µM); 46.7% (second compound 0.1 µM, first compound 0.01 µM); 34.1% (second compound 0.1 µM, first compound 0.0316 µM); 18.5% (second compound 0.1 µM, first compound 0.1 µM). For the same molecule, the viability, T/C is 62.6% (second compound 0.316 µM, first compound 0.000316 µM); 73.7% (second compound 0.316 µM, first compound 0.001 µM); 50.3% (second compound 0.316 µM, first compound 0.00316 µM); 37.3% (second compound 0.316 µM, first compound 0.01 µM); 33.3% (second compound 0.316 µM, first compound 0.0316 µM); 14.2% (second compound 0.316 µM, first compound 0.1 µM). For the same molecule, the viability, T/C by setting is: (second compound 1 µM, first compound 0.000316 µM) 68.8%; (second compound 1 µM, first compound 0.001 µM) 68.5%; (second compound 1 µM, first compound 0.00316 µM) 50.1%; (second compound 1 µM, first compound 0.01 µM) 35.8%; (second compound 1 µM, first compound 0.0316 µM) 22.7%; (second compound 1 µM, first compound 0.1 µM) 10.6%. Besides, the viability, T/C was 52.8% (second compound 3.16 µM, first compound 0.000316 µM); 48.5% (second compound 3.16 µM, first compound 0.001 µM); 44.3% (second compound 3.16 µM, first compound 0.00316 µM); 28.9% (second compound 3.16 µM, first compound 0.01 µM); 9.8% (second compound 3.16 µM, first compound 0.0316 µM); 10.8% (second compound 3.16 µM, first compound 0.1 µM). In addition, the viability, T/C (second compound 10 µM, first compound 0.000316 µM) is 103%; the viability, T/C (second compound 10 µM, first compound 0.001 µM) is 81%; the viability, T/C (second compound 10 µM, first compound 0.00316 µM) was 93.3%; the viability, T/C (second compound 10 µM, first compound 0.01 µM) was 50.1%; the viability, T/C (second compound 10 µM, first compound 0.0316 µM) was 12.4%; the viability, T/C (second compound 10 µM, first compound 0.1 µM) is 9.31%.

For `NC(=O)C(=Cn1cnc(-c2cc(C(F)(F)F)cc(C(F)(F)F)c2)n1)c1cncnc1`, the viability, T/C runs as follows: (compound 0.000949 µM) 94.3% and 102% and 110%; (compound 0.003 µM) 82.4% and 87.5% and 105%; (compound 0.00949 µM) 76.6% and 76% and 91.7%; (compound 0.03 µM) 41.9% and 34.6% and 60.8%; (compound 0.0949 µM) 17% and 17.8% and 30.1%; (compound 0.3 µM) 8.93% and 7.15% and 11.8%. The IC50 (curve of compound) is 23 nM and 19.9 nM and 45.4 nM.
